The values below come from patent US9115092B2, “Substituted quinazoline and pyrido-pyrimidine derivatives” (Asana Biosciences, LLC, priority 2010, dated 2015).

One assay relates to pAKT(5473) in PC3 tumor. Description: In vivo PK/PD study, PC3 tumor bearing mice, pAkt(5473). To be noted: Mus musculus, 50 mg/kg po single dose. The procedure: (§1) PC3 cells were cultured at 37° C. in a 5% CO2 incubator using Hams F12 K medium. Ten million (10^7) cells were injected subcutaneously to the right flank region of athymic male mice (Harlan, age: 6-7 weeks, weight: about 20 g). Tumor bearing mice were randomized when the tumor volume reached about 250 mm^3 and three mice were used per each time point. Test compounds of formula (I) were formulated in 40% HPCD in 1×PBS, pH 7.4 and dosed orally at 50 mg/kg single dose (dose volume−10 mL/kg). Plasma and tumor samples were collected at 0 (vehicle control animals), 1, 4 and 24 hours post dosing. Blood was drawn (retro orbital) to a tube containing 0.2% EDTA for plasma collection. The tumor was excised from the mouse and immediately frozen in liquid nitrogen for PD analysis. Tumor and plasma drug concentrations were measured for PK analysis using LC-MS.
(§2) Snap frozen tumor samples were pulverized in a mortar (Belart) containing liquid nitrogen and tumor powder was stored at −80° C. until analysis. Pre coated ELISA kits (Cell Signaling Technology; pAKT(T308), CST#7135; pAKT(5473), CST#7134 and pS6RP, CST#7205) were used for PD analysis. Tumor powder was transferred to Eppendorf® tubes and lysis buffer (1 mL) was added to the powder. […] The detection for pAKT was based on chemiluminescence and pS6RP was based on absorbance. […]

A further assay concerns pS6RP in PC3 tumor. Description: In vivo PK/PD study, PC3 tumor bearing mice, pS6RP. To be noted: Mus musculus. As to the method: as §1
(§3) Snap frozen tumor samples were pulverized in a mortar (Belart) containing liquid nitrogen and tumor powder was stored at −80° C. until analysis. Pre coated ELISA kits (Cell Signaling Technology; pAKT(T308), CST#7135; pAKT(5473), CST#7134 and pS6RP, CST#7205) were used for PD analysis. Tumor powder was transferred to Eppendorf® tubes and lysis buffer (1 mL) was added to the powder. Protease and phosphatase inhibitors (SIGMA) and phenylmethanesulfonylfluoride (PMSF) were added to tumor powder and mixed by vortexing followed by sonication (15 sec). Samples were kept on an ice bath for 30 min. Supernatant was separated after centrifugation at 10,000 rpm for 20 min at 4° C. Supernatant was re-centrifuged and fresh supernatant was aliquoted to different tubes. Total protein was estimated using a BCA kit (Thermo Scientific) and 50 μg total protein was loaded to each well. ELISA analysis was carried out as per manufacturer's instructions. The detection for pAKT was based on chemiluminescence and pS6RP was based on absorbance. Qualitative assessments of the suppression of pAKT(T308), pAKT(5473), and pS6RP were also carried out by standard Western blot analyses.
For example, the compound of Example 1, at 50 mg/kg po, caused about 50% inhibition of pAkt(5473) at 1 and 4 hours and >50% inhibition of pS6RP at 1, 4 and 24 hours. Also, the compound of Example 2, at 50 mg/kg po, caused about 25-30% inhibition of pAkt(5473) at 4 and 24 hours and >50% inhibition of pS6RP at 1, 4 and 24 hours. The compound of example 51, at 30 mg/kg po, caused >50% inhibition of pS6RP at 2, 4 and 24 hours. Also, the compounds of examples 133, 146, 147, and 228, at 50 mg/kg po, each caused >50% inhibition of pS6RP at 3 and 8 hours.

The subject of assay [1] is pAkt(5473) in BT474 tumor. Nature of the assay: In vivo PK/PD study, BT474 tumor-bearing xenograft mice, pAkt(5473). To be noted: 2 weeks at 40 mg/kg bid po. The procedure: as §1
(§4) Snap frozen tumor samples were pulverized in a mortar (Belart) containing liquid nitrogen and tumor powder was stored at −80° C. until analysis. […] The detection for pAKT was based on chemiluminescence and pS6RP was based on absorbance. […]
(§5) In vivo pharmacokinetic/pharmacodynamic (PK/PD) studies were also carried out using BT474 tumor cells and the corresponding tumor-bearing xenograft mice, and compounds of the invention were determined to be active in this assay. […]

For another assay, the target named is PI3 kinase isoform δ (Homo sapiens, UniProt O00329). Description: PI3 Kinase TR-FRET assay, isoform δ. It is filed as biochemical. To be noted: read-out: inhibition of PI3 kinase isoform δ, IC50. The procedure:
The ability of compounds of the invention to inhibit PI3K activity was determined in a homogeneous TR-FRET assay using a PI3K assay kit (Millipore, USA; cat #33-016) according to manufacturer's instructions. PI3-Kinases (isoforms α, β, γ and δ) catalyze the phosphorylation of phosphatidylinositol, PIP2 to PIP3 in the presence of ATP and Mg^2+. The PIP3 product is detected by displacement of biotin-PIP3 from an energy transfer complex consisting of Europium labeled anti-GST monoclonal antibody, a GST-tagged PH domain, biotinylated PIP3 and Streptavidin-APC. Excitation of Europium in the complex results in an energy transfer to the APC and a fluorescence emission at 665 nm. The PIP3 product displaces biotin-PIP3 from the complex resulting in a loss of energy transfer and thus a decrease in signal.
To test for the ability of compounds to inhibit the activity of PI3Kα (wild-type), exemplary compounds of formula (I) were dissolved in DMSO and directly distributed into 384-well plates at a volume of 0.5 μL. 14.5 μL of P110/P85α/PIP2 mixture in buffer (obtained from the Millipore kit) containing MgCl2 (40 mM) and DTT (5 mM) was added to compound wells and incubated for 60 min at room temperature. P110/P85α was expressed in SF9 insect cells and purified nickel column extraction. Five ng of wild-type P110/P85α was used in the assay. The kinase reaction was started by the addition of ATP. The assay concentrations of both PIP2 and ATP were 10 μM. The reaction mixture was incubated for 30 min at room temperature and was terminated by the addition of stop mix and detection mix. Fluorescence was measured at 615 and 665 nm upon excitation at 340 nm in a Victor™ V5 fluorometer (Perkin Elmer, USA). The fluorescence emission ratio at 665 to 615 nm, proportional to the kinase activity, was plotted against the compound concentration to generate dose-response curves and IC50 values were determined using GraphPad Prism® 5 software.
The activity of PI3 kinase isoforms β, γ and δ were assayed in a similar manner to the assay protocol described above for PI3Kα, by substituting the appropriate p110/p85 isoform for the p110α/p85α. Compounds of formula (I) caused inhibition of PI3 kinase isoforms β, γ and δ as determined by these assays. For example, the compounds of examples 3, 51, 54, 111, 113, 115, and 253 each caused inhibition of PI3 kinase isoform β with IC50 values <50 nM. The compounds of examples 104, 133, 146 and 152 each caused inhibition of PI3 kinase isoform β with IC50 values <500 nM. The compounds of examples 3, 51, 54, 104, 111, 113, 115, 133, 253, and 152 each caused inhibition of PI3 kinase isoform γ with IC50 values <500 nM. […] The compounds of examples 2, 3, 51, 54, 111, 113, and 253 each caused inhibition of PI3 kinase isoform […] with IC50 values >1 μM.

A further assay has as its system pS6RP in BT474 tumor. Nature of the assay: In vivo PK/PD study, BT474 tumor-bearing xenograft mice, pS6RP. To be noted: for suppression of pS6RP in tumor tissue samples by Western blot: 2 weeks at 40 mg/kg bid po. As to the method: as §1
as §3, with “ELISA analysis was carried out as per manufacturer's instructions.” left out, “Qualitative assessments of the suppression of pAKT(T308), pAKT(5473), and pS6RP were also carried out by standard Western blot analyses.” left out
as §5
Background: In western blotting, separated proteins are transferred to a membrane and probed.

Assay [2] concerns pAkt(T308) in BT474 tumor. Nature of the assay: In vivo PK/PD study, BT474 tumor-bearing xenograft mice, pAkt(T308). To be noted: 2 weeks at 40 mg/kg bid po. As to the method:
as §1, §4, §5

A further assay relates to pAKT(T308) in PC3 tumor. Nature of the assay: In vivo PK/PD study, PC3 tumor bearing mice, pAkt(T308) Western blot. To be noted: 50 mg/kg po, at 8 hours. The procedure:
as §1, §2

Setting [3] is: 50 mg/kg po single dose, at 1, 4 and 24 hours.

Sequence of PI3 kinase isoform δ (O00329 whole entry, the tested form may be a part, canonical isoform): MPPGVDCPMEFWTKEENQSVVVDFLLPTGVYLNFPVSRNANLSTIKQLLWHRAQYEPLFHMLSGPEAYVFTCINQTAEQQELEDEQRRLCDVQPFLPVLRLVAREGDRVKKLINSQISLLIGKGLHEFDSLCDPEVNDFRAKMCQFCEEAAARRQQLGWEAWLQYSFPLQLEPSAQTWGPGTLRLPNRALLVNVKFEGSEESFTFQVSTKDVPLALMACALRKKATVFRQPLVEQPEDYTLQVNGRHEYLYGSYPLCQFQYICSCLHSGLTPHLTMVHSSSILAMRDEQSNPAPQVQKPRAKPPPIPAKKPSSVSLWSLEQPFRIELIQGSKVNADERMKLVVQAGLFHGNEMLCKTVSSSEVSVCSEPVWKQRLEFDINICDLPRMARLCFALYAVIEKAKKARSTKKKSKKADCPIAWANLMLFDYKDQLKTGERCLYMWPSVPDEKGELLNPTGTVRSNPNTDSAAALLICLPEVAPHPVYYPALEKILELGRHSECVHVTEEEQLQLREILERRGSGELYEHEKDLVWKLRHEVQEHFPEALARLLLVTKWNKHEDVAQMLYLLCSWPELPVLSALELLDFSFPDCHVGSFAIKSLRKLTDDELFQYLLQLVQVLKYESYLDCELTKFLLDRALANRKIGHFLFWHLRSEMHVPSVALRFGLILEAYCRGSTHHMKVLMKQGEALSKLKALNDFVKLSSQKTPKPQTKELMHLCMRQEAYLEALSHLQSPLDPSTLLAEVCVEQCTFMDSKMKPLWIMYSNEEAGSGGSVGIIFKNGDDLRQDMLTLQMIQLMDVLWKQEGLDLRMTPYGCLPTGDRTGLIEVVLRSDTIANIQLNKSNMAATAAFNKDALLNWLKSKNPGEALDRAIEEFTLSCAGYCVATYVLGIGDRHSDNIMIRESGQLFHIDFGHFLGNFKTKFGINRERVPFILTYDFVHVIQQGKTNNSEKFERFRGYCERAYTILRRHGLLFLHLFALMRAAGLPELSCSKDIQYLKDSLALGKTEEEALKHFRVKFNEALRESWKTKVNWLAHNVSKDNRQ
Sequence of PI3 kinase isoform δ (P27986 whole entry partner, the tested form may be a part, canonical isoform): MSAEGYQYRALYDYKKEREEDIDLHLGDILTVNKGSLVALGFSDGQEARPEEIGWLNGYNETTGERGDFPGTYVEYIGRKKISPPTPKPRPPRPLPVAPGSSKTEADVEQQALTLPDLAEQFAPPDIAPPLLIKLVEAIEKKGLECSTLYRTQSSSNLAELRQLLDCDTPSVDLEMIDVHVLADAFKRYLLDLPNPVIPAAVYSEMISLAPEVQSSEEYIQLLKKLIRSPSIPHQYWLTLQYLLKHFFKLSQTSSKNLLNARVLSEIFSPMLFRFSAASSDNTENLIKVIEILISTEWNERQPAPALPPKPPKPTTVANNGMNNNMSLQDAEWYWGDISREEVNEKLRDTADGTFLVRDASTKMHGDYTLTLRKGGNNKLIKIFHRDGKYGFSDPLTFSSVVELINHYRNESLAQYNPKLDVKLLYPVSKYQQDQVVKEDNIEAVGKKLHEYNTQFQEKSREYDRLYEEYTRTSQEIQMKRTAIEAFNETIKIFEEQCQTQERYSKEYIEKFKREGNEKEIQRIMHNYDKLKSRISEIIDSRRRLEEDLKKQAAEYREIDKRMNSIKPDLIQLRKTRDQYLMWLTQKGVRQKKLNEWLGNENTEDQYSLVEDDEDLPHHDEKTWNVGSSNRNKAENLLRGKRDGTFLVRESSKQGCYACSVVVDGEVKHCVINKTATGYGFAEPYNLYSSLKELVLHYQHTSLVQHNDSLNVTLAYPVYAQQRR

On to `CN(C)C(=O)c1ccc(NC(=O)Nc2ccc(-c3nc(N4CCOCC4)c4ccc(-c5cncnc5)cc4n3)cc2)cc1` [Example 1, N,N-Dimethyl-4-(3-{4-[4-morpholin-4-yl-7-pyrimidin-5-yl-quinazolin-2-yl)-phenyl]-ureido}-benzamide], for which the inhibition (in general, the relative decrease from the control value, in per cent) at 50 mg/kg is about 50% in the assay with pAKT(5473) in PC3 tumor (at 1 and 4 hours); over 50% in the assay on pS6RP in PC3 tumor (setting [3]).
With `Cc1ccc(-c2ccc3c(N4CCOCC4)nc(-c4ccc(NC(=O)Nc5ccc(C(=O)N(C)C)cc5)cc4)nc3c2)o1` [Example 2, N,N-Dimethyl-4-(3-{4-[7-(5-methyl-furan-2-yl)-4-morpholin-4-yl-quinazolin-2-yl]-phenyl}-ureido)-benzamide], the inhibition at 50 mg/kg in the assay on pAKT(5473) in PC3 tumor (at 4 and 24 hours) is 25 to 30%; in the assay on pS6RP in PC3 tumor (setting [3]) it was over 50%. Besides, the “suppression of pAkt(5473) in tumor tissue samples by Western blot” value in assay [1] is listed as “significant suppression”. The IC50 (in general, the midpoint of a concentration-inhibition curve) at PI3 kinase isoform δ is over 1000 nM. Moreover, in the assay on pS6RP in BT474 tumor, the “suppression of pS6RP in tumor tissue samples by Western blot” value is reported as “significant suppression”. Further, in assay [2], the “suppression of pAkt(T308) in tumor tissue samples by Western blot” value is given as “significant suppression”.
Consider `CN(C)C(=O)c1ccc(NC(=O)Nc2ccc(-c3nc(N4CCOCC4)c4ccc(-c5ccco5)cc4n3)cc2)cc1` [Example 51, 4-{3-[4-(7-furan-2-yl-4-morpholin-4-yl-quinazolin-2-yl)-phenyl]-ureido}-N,N-dimethyl-benzamide], for which the “suppression of pAkt(5473) in tumor tissue samples by Western blot” value in assay [1] is “significant suppression”. The inhibition at 30 mg/kg was over 50% with pS6RP in PC3 tumor (30 mg/kg po, at 2, 4 and 24 hours); 30 to 40% with pS6RP in BT474 tumor (Mus musculus, BT-474, 30 mg/kg po, at 4 and 24 hours). The IC50 at PI3 kinase isoform δ is over 1000 nM. The “suppression of pS6RP in tumor tissue samples by Western blot” value in the assay with pS6RP in BT474 tumor is given as “significant suppression”. Besides, the “suppression of pAkt(T308) in tumor tissue samples by Western blot” value in assay [2] is “significant suppression”.
`CN(C)C(=O)c1ccc(NC(=O)Nc2ccc(-c3nc(N4CCOCC4)c4ccc(-c5cncnc5)cc4n3)cc2)c(F)c1` [Example 133, 3-fluoro-N,N-dimethyl-4-(3-(4-(4-morpholino-7-(pyrimidin-5-yl)quinazolin-2-yl)phenyl)ureido)-benzamide]: the “suppression of pAkt(T308) by Western blot analysis” value with pAKT(T308) in PC3 tumor was “significant suppression”. Moreover, the inhibition at 50 mg/kg in the assay on pS6RP in PC3 tumor (50 mg/kg po, at 3 and 8 hours) was over 50%.
The matching figures for `CN(C)C(=O)c1ccc(NC(=O)Nc2ccc(-c3nc(N4CCOCC4)c4ccc(-c5cccnc5F)cc4n3)cc2)c(F)c1` [Example 146, 3-fluoro-4-(3-(4-(7-(2-fluoropyridin-3-yl)-4-morpholino-quinazolin-2-yl)phenyl)ureido)-N,N-dimethyl-benzamide]: “significant suppression” and over 50%.
